Test results published in patent US6737383B1, “Herbicidal oxadiazolidines” (priority 1999, dated 2004).

How the values were obtained:
corn = assay: Test B pre/postemergence corn; assay type: in vivo, Zea mays
Procedure, shortened: (§1)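 Herbicidal effect was estimated by eye on a ten-point control scale after plants spent twelve to sixteen days in a greenhouse following soil or foliar treatment. Foliar sprays targeted plants at one to four leaves; all doses were formulated in a non-phytotoxic solvent with surfactant.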

rape = assay: Test B pre/postemergence rape; assay type: in vivo, Brassica napus
Procedure, shortened: as §1

sugar beet = assay: Test B pre/postemergence sugar beet; assay type: in vivo, Beta vulgaris
Procedure, shortened: as §1

duck salad = assay: Test B flood test duck salad; assay type: in vivo, Heteranthera limosa; conditions: for Plant response rating, Ducksalad (0 to 10 scale, 0 is no effect, 10 is complete control) / Ducksalad plant response rating (0 to 10 scale, 0 is no effect, 10 is complete control): visual evaluation after twelve to sixteen days; for Ducksalad plant response rating (0 to 10 scale, 0 is no effect, 10 is complete control): under heading Pre-emergence
Procedure, shortened: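 Read-out is a visual response score from 0 (no effect) to 10 (complete control), assigned by comparison with untreated controls. Treatment was applied at the 2-leaf stage, and plants stayed in the greenhouse for twelve to sixteen days before scoring.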

[1] = Postemergence, Rate 250 g/ha, scale 0 to 10, 0 is no effect, 10 is complete control
[2] = Postemergence, Rate 500 g/ha, scale of 0 to 10 where 0 is no effect and 10 is complete control
[3] = Preemergence, Rate 62 g/ha, scale 0 to 10 (0 no effect, 10 complete control)
[4] = Preemergence, Rate 125 g/ha, scale of 0 to 10 where 0 is no effect and 10 is complete control
[5] = Preemergence, Rate 250 g/ha, scale 0 to 10, 0 is no effect, 10 is complete control
[6] = Preemergence, Rate 500 g/ha, scale 0 to 10, 0 is no effect, 10 is complete control
[7] = Rate 62 g/ha, Postemergence, scale of 0 to 10 where 0 is no effect and 10 is complete control
[8] = Rate 62 g/ha, flood test species, Pre-emergence
[9] = Rate 125 g/ha, flood test species
[10] = Rate 250 g/ha, Pre-emergence, flood-test species, scale 0 to 10, 0 is no effect, 10 is complete control
[11] = Postemergence, Rate 1000 g/ha, scale 0 to 10 (0 no effect, 10 complete control)
[12] = Preemergence, Rate 62 g/ha, scale of 0 to 10 where 0 is no effect and 10 is complete control
[13] = Preemergence, Rate 125 g/ha, 0 is no effect, 10 is complete control
[14] = Preemergence, Rate 500 g/ha, scale 0 to 10 (0 no effect, 10 complete control)
[15] = Rate 125 g/ha, Postemergence, scale 0 to 10
[16] = Rate 500 g/ha, Postemergence, scale 0 to 10
[17] = Rate 1000 g/ha, Preemergence, scale 0 to 10 (0 no effect, 10 complete control)
[18] = Rate 62 g/ha, headed Pre-emergence (flood test species), scale 0 to 10 (0 no effect, 10 complete control)
[19] = Rate 125 g/ha, Pre-emergence, flood test species, scale 0 to 10 where 0 is no effect and 10 is complete control
[20] = Postemergence, Rate 62 g/ha, scale 0 to 10, 0 is no effect, 10 is complete control
[21] = Postemergence, Rate 125 g/ha, scale of 0 to 10 where 0 is no effect and 10 is complete control
[22] = Postemergence, Rate 250 g/ha, scale of 0 to 10, 0 is no effect, 10 is complete control
[23] = Preemergence, Rate 250 g/ha, scale 0 to 10 (0 no effect, 10 complete control)
[24] = Preemergence, Rate 500 g/ha, scale of 0 to 10 where 0 is no effect and 10 is complete control
[25] = Postemergence, Rate 31 g/ha, visual rating, scale 0 to 10 (0 no effect, 10 complete control)
[26] = Preemergence, Rate 250 g/ha, scale of 0 to 10 where 0 is no effect and 10 is complete control
[27] = Rate 62 g/ha, Postemergence, scale 0 to 10, 0 no effect, 10 complete control
[28] = Rate 125 g/ha, Postemergence, scale of 0 to 10 where 0 is no effect and 10 is complete control
[29] = Rate 250 g/ha, Postemergence, scale of 0 to 10 where 0 is no effect and 10 is complete control

CC(C)N(C(=O)n1oc(=O)n(CC2CCC2)c1=O)c1ccc(F)cc1 [Compound 403]
Plant response rating, Corn (corn; Postemergence, Rate 125 g/ha, scale 0 to 10, 0 is no effect, 10 is complete control): 0 | Plant response rating, Corn (corn; [1]): 0 | Corn plant response rating (corn; [2]): 0 | Plant response rating, Corn (corn; [3]): 0 | Plant response rating, Corn (corn; [4]): 2 | Corn plant response rating (corn; [5]): 2 | Corn plant response rating (corn; [6]): 6 | Corn plant response rating (corn; [7]): 0 | Plant response rating, Rape (rape; [1]): 4 | Rape plant response rating (rape; [2]): 7 | Plant response rating, Rape (rape; [3]): 0 | Plant response rating, Rape (rape; [4]): 1 | Rape plant response rating (rape; [5]): 5 | Rape plant response rating (rape; [6]): 7 | Rape plant response rating (rape; [7]): 2 | Plant response rating, Sugarbeets (sugar beet; [1]): 0 | Sugarbeets plant response rating (sugar beet; [2]): 3 | Plant response rating, Sugarbeets (sugar beet; [3]): 0 | Plant response rating, Sugarbeets (sugar beet; [4]): 1 | Sugarbeets plant response rating (sugar beet; [5]): 3 | Sugarbeets plant response rating (sugar beet; [6]): 5 | Sugarbeets plant response rating (sugar beet; [7]): 0 | Plant response rating, Ducksalad (0 to 10 scale, 0 is no effect, 10 is complete control) (duck salad; [8]): 0 | Ducksalad plant response rating (0 to 10 scale, 0 is no effect, 10 is complete control) (duck salad; [9]): 0 | Ducksalad plant response rating (duck salad; [10]): 0 | Ducksalad plant response rating (duck salad; Rate 500 g/ha, Pre-emergence, flood test species, scale 0 to 10 (0 no effect, 10 complete control)): 0

CC(C)N(C(=O)n1oc(=O)n(C2CCCC(C(F)(F)F)C2)c1=O)c1ccc(F)cc1 (stereo not drawn) [Compound 184]
Corn plant response rating (corn; [11]): 0 | Corn plant response rating (corn; [12]): 0 | Corn plant response rating (0 to 10 scale) (corn; [13]): 0 | Corn plant response rating (corn; [5]): 0 | Corn plant response rating (corn; [14]): 0 | Corn plant response rating (corn; [7]): 0 | Corn plant response rating (corn; [15]): 0 | Plant response rating (0 to 10; 0 is no effect, 10 is complete control), Corn (corn; Rate 250 g/ha, Postemergence): 0 | Corn plant response rating (corn; [16]): 0 | Plant response rating, Corn (corn; [17]): 2 | Rape plant response rating (rape; [11]): 3 | Rape plant response rating (rape; [12]): 0 | Rape plant response rating (0 to 10 scale) (rape; [13]): 0 | Rape plant response rating (rape; [5]): 0 | Rape plant response rating (rape; [14]): 0 | Rape plant response rating (rape; [7]): 0 | Rape plant response rating (rape; [15]): 2 | Plant response rating (0 to 10; 0 is no effect, 10 is complete control), Rape (rape; Rate 250 g/ha, Postemergence): 3 | Rape plant response rating (rape; [16]): 6 | Plant response rating, Rape (rape; [17]): 0 | Sugarbeets plant response rating (sugar beet; [11]): 0 | Sugarbeets plant response rating (sugar beet; [12]): 0 | Sugarbeets plant response rating (0 to 10 scale) (sugar beet; [13]): 0 | Sugarbeets plant response rating (sugar beet; [5]): 0 | Sugarbeets plant response rating (sugar beet; [14]): 0 | Sugarbeets plant response rating (sugar beet; [7]): 2 | Sugarbeets plant response rating (sugar beet; [15]): 2 | Plant response rating (0 to 10; 0 is no effect, 10 is complete control), Sugarbeets (sugar beet; Rate 250 g/ha, Postemergence): 5 | Sugarbeets plant response rating (sugar beet; [16]): 6 | Plant response rating, Sugarbeets (sugar beet; [17]): 2 | Ducksalad plant response rating (duck salad; [18]): 0 | Ducksalad plant response rating (duck salad; [19]): 0 | Ducksalad plant response rating (duck salad; [10]): 0 | Plant response rating, Ducksalad (duck salad; Rate 500 g/ha, headed Pre-emergence (flood test species), scale 0 to 10 (0 no effect, 10 complete control)): 0 | Ducksalad plant response rating (duck salad; Rate 1000 g/ha, Pre-emergence (as headed), scale 0 to 10): 0

CCOC(Cn1c(=O)on(C(=O)N(c2ccc(F)cc2F)C(C)C)c1=O)OCC [Compound 630]
Plant response rating, Corn (corn; [20]): 0 | Plant response rating, Corn (corn; [21]): 0 | Corn plant response rating (corn; [22]): 2 | Plant response rating, Corn (corn; [2]): 5 | Corn plant response rating (corn; [3]): 0 | Corn plant response rating (corn; [4]): 0 | Plant response rating, Corn (corn; [23]): 3 | Plant response rating, Corn (corn; [24]): 5 | Plant response rating, Rape (rape; [20]): 0 | Plant response rating, Rape (rape; [21]): 0 | Rape plant response rating (rape; [22]): 0 | Plant response rating, Rape (rape; [2]): 4 | Rape plant response rating (rape; [3]): 0 | Rape plant response rating (rape; [4]): 0 | Plant response rating, Rape (rape; [23]): 0 | Plant response rating, Rape (rape; [24]): 0 | Plant response rating, Sugarbeets (sugar beet; [20]): 0 | Plant response rating, Sugarbeets (sugar beet; [21]): 0 | Sugarbeets plant response rating (sugar beet; [22]): 0 | Sugarbeets plant response rating (sugar beet; [3]): 0 | Sugarbeets plant response rating (sugar beet; [4]): 4 | Plant response rating, Sugarbeets (sugar beet; [23]): 4 | Plant response rating, Sugarbeets (sugar beet; [24]): 7 | Plant response rating, Ducksalad (0 to 10 scale, 0 is no effect, 10 is complete control) (duck salad; [8]): 0 | Ducksalad plant response rating (0 to 10 scale, 0 is no effect, 10 is complete control) (duck salad; [9]): 0 | Ducksalad plant response rating (duck salad; Rate 250 g/ha, Pre-emergence (flood test species), scale 0 to 10, 0 is no effect, 10 is complete control): 0 | Ducksalad plant response rating (duck salad; Rate 500 g/ha, Pre-emergence section of Table B, 0 to 10 scale (0 no effect, 10 complete control)): 0

COCC(C)N(C(=O)n1oc(=O)n(-c2ccccc2C)c1=O)c1ccc(F)cc1 (stereo not drawn) [Compound 324]
Corn plant response rating (corn; [25]): 0 | Corn plant response rating (corn; Preemergence, Rate 31 g/ha, visual rating, scale 0 to 10 (0 no effect, 10 complete control)): 0 | Corn plant response rating (corn; [12]): 0 | Corn plant response rating (0 to 10 scale) (corn; Preemergence, Rate 125 g/ha): 0 | Corn plant response rating (corn; [26]): 0 | Corn plant response rating (corn; [27]): 0 | Corn plant response rating (corn; [28]): 0 | Plant response rating, Corn (corn; [29]): 0 | Rape plant response rating (rape; [25]): 0 | Rape plant response rating (rape; [12]): 0 | Rape plant response rating (0 to 10 scale) (rape; Preemergence, Rate 125 g/ha): 0 | Rape plant response rating (rape; [26]): 0 | Rape plant response rating (rape; [27]): 0 | Rape plant response rating (rape; [28]): 0 | Plant response rating, Rape (rape; [29]): 0 | Sugarbeets plant response rating (sugar beet; [25]): 0 | Sugarbeets plant response rating (sugar beet; [12]): 0 | Sugarbeets plant response rating (0 to 10 scale) (sugar beet; Preemergence, Rate 125 g/ha): 0 | Sugarbeets plant response rating (sugar beet; [26]): 0 | Sugarbeets plant response rating (sugar beet; [27]): 0 | Sugarbeets plant response rating (sugar beet; [28]): 0 | Plant response rating, Sugarbeets (sugar beet; [29]): 0 | Ducksalad plant response rating (duck salad; Rate 31 g/ha, Pre-emergence section (flood test species), scale 0 to 10): 0 | Ducksalad plant response rating (duck salad; [18]): 0 | Ducksalad plant response rating (duck salad; [19]): 0 | Ducksalad plant response rating (duck salad; [10]): 0
